For 88 molecules, melting point results are on record in a melting point compilation (Tetko et al.; mined from patent text by program, amines drawn as free bases though some values may be those of a salt).

Turning to `NS(=O)(=O)c1cccc(-c2cccc(-c3nc(-c4ccc(C(F)(F)F)nc4)cc(C(F)F)n3)c2)c1`, the melting point was 222 °C.
Under `O=C(O)CCCCCn1c2ccccc2c(=O)c2ccccc21` stands 167 °C.
For `COc1ccc(OC)c(-c2c(O)c3ccc(Cl)cc3[nH]c2=O)c1` the value was 280 to 282 °C; for `COc1cccc2cc(CNCCNC(=O)C34CC5CC(CC3C5)C4)oc12`, 103 to 107 °C.
Under `COC(=O)C(=NO)c1nc2cccc(OC)c2oc1=O` stands 176 to 178 °C; under `Cc1ccc(N(C)C(=O)Cc2ccccc2)s1`, 77 to 79 °C; under `O=C1c2ccc(Nc3ccc(Cl)cc3)cc2C(=O)N1Cc1cccnc1`, 207 to 210 °C.
Consider `N#Cc1cc(C(=O)NNC(=O)c2occ(-c3ccccc3)c2-c2ccccc2)ccc1OC(=O)c1ccccc1`, for which the melting point lay within 163 to 167 °C.
For `Cc1nc(N)c2nc(C)n(CCCCCS(C)(=O)=O)c2c1C` the value was 199 to 200 °C; for `Cc1sc(C)c2c1CCC=C2c1cn(C(c2ccccc2)(c2ccccc2)c2ccccc2)cn1`, 205 to 207 °C; for `CCOC(=O)c1ccc(-c2coc(-c3ccc(Cl)cc3)n2)cc1`, 153 to 154 °C.
In the case of `CCC1C(C)=NN=C(c2ccc(OC)c(OC)c2)c2cc(OC)c(O)cc21` (stereo not drawn), the melting point is 210 to 212 °C.
`COC(=O)C=Cc1cc2ccccc2nc1Cl` yielded a melting point of 153 to 154 °C.
Under `COc1ccc(C(=O)CC2CCN(CCn3c(=O)[nH]c4ccccc43)CC2)cc1` stands 156 °C.
Molecule `CC(OC(=O)C1CC(=O)c2cc(F)ccc2O1)c1ccccc1` (single isomer, unassigned; (+)) yielded a melting point of 98 °C.
For `CC(C)(C(N)=O)c1cccc(Cn2ccnc2)c1` the value was 79 to 82 °C; for `O=c1ccc(S(=O)(=O)c2cc3c(=O)[nH]ccc3o2)n[nH]1`, greater than 275 °C.
For `CCCCCCCNC(=O)Nc1cccc(N(C)C)c1C(=O)NC1CCN(C(c2ccccc2)c2ccccc2)CC1` the value was 77 °C; for `O=CNC[C@H]1CN(c2ccc(N3CCOCC3)c(F)c2)C(=O)O1`, 44 to 47 °C; for `CCCCN(CC)CC(=O)OC1CC2(C)C(C(C)=O)CCC2C2CCC3CC(O)CCC3(C)C12` (stereo not drawn), 111 to 112 °C.
For `CNC(=O)N1CCC(C(Nc2ccc(F)cc2)c2ccc(F)cc2)CC1` (stereo not drawn) the value was 86 to 90 °C; for `CCOC(=O)CCc1nnc(-c2ccc3c(c2)CCO3)o1`, 81 to 82 °C.
On to `Cc1ccc(F)cc1C(=O)Nc1ccc(C(=O)O)cc1`, for which the melting point was 272 to 275 °C.
As for `CC(=O)Nc1ccc(I)cc1F`, the melting point was in the range of 152 to 154 °C.
For `Cc1cc(C)c2sc(N)nc2c1` the value was 142 to 144 °C; for `CCNc1nc2ccccc2n2cnnc12`, 254 to 256 °C; for `O=C(CSc1ncc(Br)cn1)c1ccccc1`, 107 to 109 °C.
Turning to `CC(C)=CCOc1c(-c2ccc(S(C)(=O)=O)cc2)cnn(-c2ccc(F)cc2)c1=O`, the melting point is 128 to 132 °C.
`Cc1oncc1C(=O)c1ccccc1[N+](=O)[O-]` returned a melting point of 104 to 106 °C.
`Cn1c(-c2ccc(-c3cncs3)cc2)cnc1[C@H](Cc1ccccn1)N(C=O)c1cc2cc(Cl)ccc2o1` displayed a melting point of 165 to 167 °C.
In the case of `CN(C(=O)C1CCn2cccc21)c1ccccc1` (stereo not drawn), the melting point was found to be 112 °C.
For `COC1(OC)CN(c2nc3c(cc2F)C=C(C(=O)O)CN3c2ccc(F)cc2F)CC1C` (stereo not drawn) the value was 179 to 182 °C.
For `FC(F)(F)c1cc(CCC2OCCNC2c2ccccc2)cc(C(F)(F)F)c1` (stereo not drawn) the value was 114 to 116 °C; for `COCOc1ccc(C=C2CCCC(=Cc3ccc(OCOC)c(OC)c3)C2=O)cc1OC`, 73 to 75 °C.
For `CCCCCCCCCCCCCCCCCCS(=O)(=O)Nc1cc(C(=O)Nc2ccccc2)ccc1OC` the value was 154 to 156 °C.
In turn, `CC(C)c1cn2ccccc2c1S(=O)(=O)c1ccc(OCCCBr)cc1` gave a melting point of 133 °C.
For `CCOC(C)OCC(C)C1CCC2C3CC=C4CC(O)CC(O)C4(C)C3CCC12C` (stereo not drawn) the value was 124 to 126 °C; for `COCCOCc1c(CN(C)C[C@@H](O)c2ccco2)sc2c(=O)c(C(=O)NCc3ccc(Cl)cc3)cn(C)c12`, 146 to 147 °C; for `CC(C)c1ccc(N2Cc3ccc(Cl)cc3C2=O)cc1`, 206 to 209 °C.
For `CCN(CC)c1cccc2nc(C(O)c3ccc(Cl)cc3Cl)n(CCO)c12` (stereo not drawn) the value was 177 to 179 °C.
For `c1ccc2cc(OCCCNN3CCCCC3)ccc2c1` the value was 78 °C; for `CC(C)(C)OC(=O)C(Nc1ccccc1)c1cccc(F)c1` (racemic), 90 °C; for `O=C(Cc1ccccc1)Nc1cc(Cl)c(Cl)cc1[N+](=O)[O-]`, 116 to 118 °C.
`CCOc1ccccc1CS(N)(=O)=O` returned a melting point of 92 to 93 °C.
For `C=CCn1c(Oc2cnn(-c3c(Cl)cc(C(F)(F)F)cc3Cl)n2)nc(C#N)c1C#N` the value was 121 to 131 °C; for `CC1OC(O)CC(O)C1O` (stereo not drawn), 102 to 105 °C; for `COc1ccc2c(cc(C)n2-c2ncnc3cc(Cl)ccc23)c1CC(=O)O`, 110 to 112 °C.
Under `CC(c1ccco1)N(O)C(N)=O` (stereo not drawn) stands 143 to 144 °C; under `O=C(N[C@H]1C[C@H](C(=O)O)Nc2cc(Cl)cc(Cl)c21)C(c1ccccc1)c1ccccc1` (relative stereo), 238 °C.
For `N#Cc1cc(NC(=O)C2CCc3ccccc3C2)ccc1N1CCC(O)CC1` (stereo not drawn) the value was 163 to 165 °C; for `Cc1ccc(C(C)(C)C)c(O)c1C(=O)Oc1ccccc1`, 71 to 72 °C; for `COC(=O)c1ccc2c(c1)S(=O)(=O)c1ccccc1N=C2N1CCOCC1`, 164 to 166 °C.
For `COC(=O)NCCSc1cccc2nccn12`, the melting point was 198 to 200 °C.
Under `CCOC(=Cc1ccc(-c2cccc(N(C)C(=O)NC3CCCCC3)c2)cc1)C(=O)O` stands 85 °C; under `Cn1cc2c(=O)[nH]c(=O)[nH]c2n1`, 200 °C.
Under `CCOc1nn(Cc2cncc(OCc3nc(-c4ccccc4)oc3C)c2)cc1CCC(=O)O` stands 133 to 134 °C; under `N#CCc1ccc(-c2cn3ccccc3n2)cc1`, 175 to 177 °C; under `O=S(=O)(Nc1cccc(CCOCc2csc(-c3ccc(Cl)cc3)n2)c1)C(F)(F)F`, 114 to 116 °C.
Under `Cc1cn([C@H]2C=C[C@@H](O)C2)c(=O)[nH]c1=O` (racemic) stands 191 to 192 °C.
`NC(Cc1ccc(F)cc1)=NO` returned a melting point of 104 to 106 °C.
Under `Cc1cccc2c(=O)[nH]c(N3CCN(C)C(CO)C3)cc12` (stereo not drawn) stands 184 to 186 °C.
Turning to `O=[N+]([O-])c1ccccc1/C=C/c1ccc(Cl)cc1[N+](=O)[O-]`, the melting point is 158 to 159 °C.
Under `Oc1ccc(-c2nnc(-c3ccc(O)cc3)o2)cc1` stands 338 °C; under `c1ccc(CN2CCC3(CC2)OCc2ccccc23)cc1`, 67 to 68.5 °C.
Under `COc1ccccc1CNc1ccc2c(-c3noc(C)n3)cccc2n1` stands 122 °C.
Under `C=CCNC(=O)O[C@H]1C[C@@H](C(=O)OC)[C@]2(C)CC[C@H]3C(=O)O[C@H](c4ccoc4)C[C@]3(C)[C@H]2C1=O` stands 196 to 199 °C; under `COC(=O)C#CCCc1c(C)c(OC)c(C)c(C)c1OC`, 71 to 72 °C.
The molecule `O=C(COc1ccc(Cl)cc1)N1Cc2cccn2Cc2ccccc21` came in with a melting point of 120 to 122 °C.
Under `CCCCCCCCS(=O)(=O)c1ccc(CC(COC(C)=O)(COC(C)=O)NC(C)=O)cc1` stands 98 to 100 °C; under `O=S1(=O)c2cccc3cccc(c23)N1CCN1CCN(c2ccc(O)cc2)CC1`, 235 °C.
On to `COc1cc(OC)c2c(=O)[nH]c(-c3ccc(OCCO)c(-c4ccc(S(C)(=O)=O)cc4)n3)nc2c1`, for which the melting point was greater than 300 °C.
For `CCOC(=O)c1cnc2nn(C)cc2c1N1CCN(C)CC1` the value was 142 to 143 °C; for `N#CC1=C(c2ccc(Br)s2)Nc2n[nH]cc2C1c1cccc2nonc12` (stereo not drawn), 208 °C; for `CC(C)(C)OC(=O)COc1ccc(-c2c(Cl)c(CN3C(=O)CCC3=O)nc3sc4c(c23)CCS(=O)C4)cc1` (stereo not drawn), 175 to 176 °C.
For `COc1ccc2c(c1)C(=O)C(=Cc1ccccc1)O2` the value was 134 °C.
Under `C[C@@H](O)[C@H]1C(=O)N([Si](C)(C)C(C)(C)C)[C@@H]1[C@@H]1COC(C)(C)O1` stands 80 to 90 °C; under `Cn1ncc(/C=C/C(=O)Nc2ccc(Cc3nc(C(=O)O)cs3)cc2)c1-c1ccc(F)cc1`, 226 to 227 °C.
Molecule `Cc1nnc(CCl)n1-c1ccc(Cl)cc1C(=O)c1ccccc1` showed a melting point of 139 to 140 °C.
For `O=C(Nc1cccc(S(=O)(=O)NCc2ccccc2)c1)c1cnn2c(C(F)F)cc(-c3ccc(C(F)(F)F)cc3)nc12` the value was 230 °C; for `COc1ccc(N2CCN(c3c(C)c(C)c4c(c3C)C(N3CCc5ccccc5C3)C(C)(C)O4)CC2)cc1` (stereo not drawn), 144 to 145 °C; for `CC(C)Oc1ccc2c(c1)OC(C(F)(F)F)C(C(=O)O)=C2` (stereo not drawn), 161 to 163 °C.
In turn, `O=[N+]([O-])c1cccc(/C=C/c2nc(C3CCC3)cs2)c1` registered a melting point of 78 to 80 °C.
Under `CCC(=O)C(=O)Nc1c(C)c(C)c2c(c1C)C(c1ccc(C(C)C)cc1)CO2` (stereo not drawn) stands 97 to 98 °C; under `CCOCc1nc2c(N)nc3ccccc3c2n1CC1(OCCS(C)(=O)=O)CCC1`, 221 to 223 °C.
Under `COC(=O)C1CCC2C3CCC4CC=CCC4(C)C3C(=O)CC12C` (stereo not drawn) stands 169 to 175 °C.
For `NC(=S)NN=Cc1ncc([N+](=O)[O-])n1Cc1ccccc1` the value was 193 to 196 °C.
As to `CSc1ccc(CCOCCCCCC(C)NCC(O)c2ccc(O)c(NS(C)(=O)=O)c2)cc1` (stereo not drawn), the melting point was in the range of 133 to 138 °C.
For `N#Cc1ccc(-c2cc(-c3ccc(C#N)cc3[N+](=O)[O-])no2)cc1` the value was 264 to 265 °C.
